System: Puccinia recondita f. sp. tritici
Assay: Test B: preventive spray on wheat seedlings, wheat leaf rust disease rating
Format: in vivo
Conditions: 192 h, 100 = 100% disease control, 0 = no control
Source text: (§1) General protocol for preparing test suspensions for Tests A-F: the test compounds were first dissolved in acetone in an amount equal to 3% of the final volume and then suspended at the desired concentration (in ppm) in acetone and purified water (50/50 mix by volume) containing 250 ppm of the surfactant PEG400 (polyhydric alcohol esters). The resulting test suspensions were then used in Tests A-F.
The test solution was sprayed to the point of run-off on wheat seedlings. The following day the seedlings were inoculated with a spore suspension of Puccinia recondita f. sp. tritici (the causal agent of wheat leaf rust) and incubated in a saturated atmosphere at 20° C. for 24 h, and then moved to a growth chamber at 20° C. for 7 days, after which time disease ratings were made.
(§2) A rating of 100 indicates 100% disease control and a rating of 0 indicates no disease control (relative to the controls). A dash (-) indicates the compound was not tested.

SMILES	pest or weed control at 10 ppm [%]
COC(=O)NCc1cc(-c2ncn(-c3c(F)cc(Cl)cc3F)n2)ccc1C [Compound 105]	100

System: not given
Assay: not given
Conditions: not given

SMILES	melting point [°C]
COC(=O)NCc1cc(-c2ccn(-c3c(F)cc(N)cc3F)n2)ccc1C [Compound 5, methyl N-[[5-[1-(4-amino-2,6-difluorophenyl)-1H-pyrazol-3-yl]-2-methyl-phenyl]methyl]carbamate]	168 to 171
COC(=O)NCc1cc(-c2cn(-c3c(F)cc([N+](=O)[O-])cc3F)nn2)ccc1C [Compound 132, methyl N-[[5-[1-(2,6-difluoro-4-nitrophenyl)-1H-1,2,3-triazol-4-yl]-2-methylphenyl]methyl]carbamate]	174 to 178
COC(=O)NCc1cc(-c2ccn(-c3c(F)cc([N+](=O)[O-])cc3F)n2)ccc1C [Compound 1, methyl N-[[5-[1-(2,6-difluoro-4-nitrophenyl)-1H-pyrazol-3-yl]-2-methyl-phenyl]methyl]carbamate]	131 to 134
COC(=O)NCc1cc(-c2ccn(-c3c(F)cc(OC(C)C)cc3F)n2)ccc1C [Compound 14, methyl N-[[5-[1-[2,6-difluoro-4-(1-methylethoxy)phenyl]-1H-pyrazol-3-yl]-2-methylphenyl]methyl]carbamate]	133 to 134
COC(=O)NCc1cc(-c2ccn(-c3c(F)cc(O)cc3F)n2)ccc1C [Compound 10, methyl N-[[5-[1-(2,6-difluoro-4-hydroxyphenyl)-1H-pyrazol-3-yl]-2-methylphenyl]methyl]carbamate]	178 to 180
COC(=O)NCc1cc(-c2ncn(-c3c(F)cc(Cl)cc3F)n2)ccc1C [Compound 105]	166 to 170
COC(=O)NCc1cc(-c2cnn(-c3c(F)cc([N+](=O)[O-])cc3F)n2)ccc1C [Compound 118, methyl N-[[5-[2-(2,6-difluoro-4-nitrophenyl)-2H-1,2,3-triazol-4-yl]-2-methyl-phenyl]methyl]carbamate]	152 to 156
COC(=O)NCc1cc(-c2cnn(-c3c(F)cc(N)cc3F)n2)ccc1C [Compound 115, methyl N-[[5-[2-(4-amino-2,6-difluorophenyl)-2H-1,2,3-triazol-4-yl]-2-methylphenyl]methyl]carbamate]	144 to 148
COC(=O)NCc1cc(-c2ccn(-c3c(F)cc(CO)cc3F)n2)ccc1C [Compound 71, methyl N-[[5-[1-[2,6-difluoro-4-(hydroxymethyl)phenyl]-1H-pyrazol-3-yl]-2-methylphenyl]methyl]carbamate]	183 to 184
COC(=O)NCc1cc(-c2ccn(-c3c(F)cc(C=O)cc3F)n2)ccc1C [Compound 67, methyl N-[[5-[1-(2,6-difluoro-4-formylphenyl)-1H-pyrazol-3-yl]-2-methyl-phenyl]methyl]carbamate]	156 to 160
COC(=O)NCc1cc(-c2ccn(-c3c(F)cc(C(=O)OC)cc3F)n2)ccc1C [Compound 70, methyl 3,5-difluoro-4-[3-[3-[[(methoxycarbonyl)amino]methyl]-4-methyl-phenyl]-1H-pyrazol-1-yl]benzoate]	120 to 122
COC(=O)NCc1cc(-c2ccn(-c3c(F)cc(Br)cc3F)n2)ccc1C [Compound 7, methyl N-[[5-[1-(4-bromo-2,6-difluorophenyl)-1H-pyrazol-3-yl]-2-methyl-phenyl]methyl]carbamate]	138 to 139
COC(=O)NCc1cc(-c2cnn(-c3c(F)cc(Cl)cc3F)n2)ccc1C [Compound 117, methyl N-[[5-[2-(4-chloro-2,6-difluorophenyl)-2H-1,2,3-triazol-4-yl]-2-methylphenyl]methyl]carbamate]	108 to 112

System: Phakopsora pachyrhizi
Assay: Test D: preventive spray on soybean seedlings, Asian soybean rust disease rating
Format: in vivo
Conditions: 216 h, 100 = 100% disease control, 0 = no control
Source text: as §1
The test solution was sprayed to the point of run-off on soybean seedlings. The following day the seedlings were inoculated with a spore suspension of Phakopsora pachyrhizi (the causal agent of Asian soybean rust) and incubated in a saturated atmosphere at 22° C. for 24 h and then moved to a growth chamber at 22° C. for 8 days, after which time visual disease ratings were made.
as §2

SMILES	pest or weed control at 10 ppm [%]
COC(=O)NCc1cc(-c2ncn(-c3c(F)cc(Cl)cc3F)n2)ccc1C [Compound 105]	92

Reference: US20240324596A1, “SUBSTITUTED TOLYL FUNGICIDES” (FMC CORPORATION, priority 2023, published 2024)
